# Where a SMILES comes first, the peptide text is derived from it. The star is where a group is joined. hSer(lactone) = O=C1OCC[C@@H]1N*
# Key:
# [1] = In vitro electrotransport flux of the PTH analogs; type: in vitro ADME, human; conditions: retro-inverso versions, 1 mM donor pH 5.0, 100 μA cm^-2, 32° C.
# Method: In vitro electrotransport studies were carried out in multi-compartment, custom-built, small volume cells using anodic drive. 1 mM PTH in 10 mM buffer was placed in the donor compartment and 25 mM final ionic strength receptor was placed in the receptor compartment. The receptor solution was 15 mM NaCl buffered to pH 7 with 10 mM imidazole, 0.1% bovine serum albumin (BSA) as a blocking agent, Tween 20 detergent and sodium azide as a bactericide.
# Heat-stripped human cadaver stratum corneum was placed between the donor and receptor compartments with the epidermis side toward the receptor compartment. A constant DC current of […] (ie,0.1 mA/cm^2) was applied. Cells were maintained at 32° C. during the in vitro studies with receptor samples taken every 2 hours (receptor volume removed and replaced with "fresh" receptor at each sampling). Receptor samples were analyzed by reversed-phase HPLC.
# Peak areas of PTH receptor samples were compared to standard curves of the same analog of known concentrations run at the same time using an analytical polymeric column, at a flow rate of 1.5 mL/min with a gradient from 10-50% B in ten minutes for elution. Buffer A was 0.1% trifluroacetic acid (TFA), 1% acetonitrile; Buffer B was 0.1% TFA, 98.9% acetonitrile. Analog concentrations were converted to mass flux and plotted vs. time.
# For the in vitro electrotransport studies, described donors contained the retro-inverso versions (ie, D-amino acid residues were used and were assembled in reverse order than usual) of the PTH analogs (1 mM) in aqueous solutions at pH 5.0. This was because PTH analogs 1 and 2 were not stable when incubated with stripped stratum corneum, probably due to proteolytic digestion by skin proteases. The fully assembled electrotransport cells were incubated at 32±0.5° C. The skin contact area available for transport was 1.27 cm^2. The donor compartment volume was 200 μL; the receptor compartment volume was 350 μL. The receptor solution was separated from the cathode by an anion exchange membrane (Ionac™, Eletrosynthesis Co., Lancaster, N.Y.). Each cell was connected to a constant current source at a standard current density of 100 μA cm^-2. The voltage drop across each cell was monitored at approximately 2-hour intervals for the duration of the experiment.
# [2] = Stability on incubation with stripped stratum corneum; type: in vitro ADME, human
# PTH receptor = biological target: T1, PTH receptor (Rattus norvegicus, UniProt P25961); experiment: PTH analog activity assay: stimulation of adenylate cyclase (cAMP by SPA) in UMR106 cells
# T1 sequence (P25961 27-591): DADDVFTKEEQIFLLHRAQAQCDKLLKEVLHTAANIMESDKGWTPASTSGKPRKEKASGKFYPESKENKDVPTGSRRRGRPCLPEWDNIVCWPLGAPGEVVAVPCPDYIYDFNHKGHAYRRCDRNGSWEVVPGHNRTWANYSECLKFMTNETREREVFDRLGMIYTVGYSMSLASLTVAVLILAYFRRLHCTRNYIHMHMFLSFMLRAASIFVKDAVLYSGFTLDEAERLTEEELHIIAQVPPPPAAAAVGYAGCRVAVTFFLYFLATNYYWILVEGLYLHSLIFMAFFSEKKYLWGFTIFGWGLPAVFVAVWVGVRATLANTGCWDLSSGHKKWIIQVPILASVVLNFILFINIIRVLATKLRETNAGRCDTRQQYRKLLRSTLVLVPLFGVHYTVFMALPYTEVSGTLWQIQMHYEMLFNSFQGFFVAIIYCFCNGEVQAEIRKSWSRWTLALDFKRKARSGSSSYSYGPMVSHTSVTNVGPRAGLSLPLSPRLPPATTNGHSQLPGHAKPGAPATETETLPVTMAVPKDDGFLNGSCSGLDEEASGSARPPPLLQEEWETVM
# Method: PTH concentrations were determined by OD280 using an extinction coefficient of 6600 for the recombinant peptide and 5500 for the synthetic peptide. The rat osteosarcoma cell line UMR106 (ATCC CRL 1661) was used for in vitro testing of the peptide's ability to activate the PTH receptor. Activation of the PTH receptor leads to an intracellular rise in cAMP concentration.
# The UMR106 cells were seeded at about 2.5×10^5 per well in a 48 well dish and allowed to grow to confluence. Assays were performed on cells 3-5 days postconfluence. The media (Dulbecco's modified Eagle's medium, DMEM, with fetal calf serum) was removed, and 1 mL of fresh media was applied. PTH (recombinant or synthetic) at various concentrations and 3-isobutyl-l-methyl xanthine (IBMX) at 1 mM final concentration were then added to each well of the plate, which was then incubated for 5 minutes at room temperature. The media was then removed and the cells quickly washed with ice cold PBS. The cells were then extracted twice with 1 mL of absolute ethanol. The two extractions were combined and the ethanol removed by evaporation. The extract was then redissolved in 1 mL of scintillation proximity buffer (SPA buffer) (Amersham, Arlington Heights, Ill.). The cAMP concentration was determined by assay using a scintillation proximity assay (SPA) kit available from Amersham.
Compound,Average mass flux [1] [μg cm^-2 h^-1],median mass flux [1] [μg cm^-2 h^-1],stability when incubated with stripped stratum corneum [2],EC50 (PTH receptor) [nM]
CC[C@H](C)[C@H](NC(=O)[C@H](CCC(=O)O)NC(=O)[C@H](CO)NC(=O)[C@@H](NC(=O)[C@@H](N)CO)C(C)C)C(=O)N[C@@H](CCC(N)=O)C(=O)N[C@@H](CC(C)C)C(=O)N[C@@H](CC(C)C)C(=O)N[C@@H](Cc1c[nH]cn1)C(=O)N[C@@H](CC(N)=O)C(=O)N[C@@H](CC(C)C)C(=O)NCC(=O)N[C@@H](CCCCN)C(=O)N[C@@H](Cc1c[nH]cn1)C(=O)N[C@@H](CCCNC(=N)N)C(=O)N[C@@H](CC(N)=O)C(=O)N[C@@H](CO)C(=O)N[C@@H](CC(C)C)C(=O)N[C@@H](CCCNC(=N)N)C(=O)N[C@@H](CCCNC(=N)N)C(=O)N[C@H](C(=O)N[C@@H](CCCNC(=N)N)C(=O)N[C@@H](Cc1c[nH]c2ccccc12)C(=O)N[C@@H](CC(C)C)C(=O)N[C@@H](CCCNC(=N)N)C(=O)N[C@@H](CCCCN)C(=O)N[C@@H](CCCCN)C(=O)N[C@@H](CC(C)C)C(=O)N[C@@H](CCCCN)C(=O)N[C@@H](CC(=O)O)C(=O)N[C@H](C(=O)N[C@@H](Cc1c[nH]cn1)C(=O)N[C@@H](CC(N)=O)C(=O)N[C@@H](Cc1ccc(O)cc1)C(=O)N[C@H]1CCOC1=O)C(C)C)C(C)C [PTH analog 1] (H-SVSEIQLLHNLGKHRNSLRRVRWLRKKLKDVHNY-{hSer(lactone)}),1.4,0.3,not stable,0.9
CC[C@H](C)[C@H](NC(=O)[C@H](CCC(=O)O)NC(=O)[C@H](CO)NC(=O)[C@@H](NC(=O)[C@@H](N)CO)C(C)C)C(=O)N[C@@H](CCC(N)=O)C(=O)N[C@@H](CC(C)C)C(=O)N[C@@H](CC(C)C)C(=O)N[C@@H](Cc1c[nH]cn1)C(=O)N[C@@H](CC(N)=O)C(=O)N[C@@H](CO)C(=O)NCC(=O)N[C@@H](CCCCN)C(=O)N[C@@H](Cc1c[nH]cn1)C(=O)N[C@@H](CCCNC(=N)N)C(=O)N[C@@H](CC(N)=O)C(=O)N[C@@H](CO)C(=O)N[C@@H](CO)C(=O)N[C@@H](CCCNC(=N)N)C(=O)N[C@@H](CCCNC(=N)N)C(=O)N[C@@H](CO)C(=O)N[C@@H](CCCNC(=N)N)C(=O)N[C@@H](Cc1c[nH]c2ccccc12)C(=O)N[C@@H](CO)C(=O)N[C@@H](CCCNC(=N)N)C(=O)N[C@@H](CCCCN)C(=O)N[C@@H](CCCCN)C(=O)N[C@@H](CO)C(=O)N[C@@H](CCCCN)C(=O)N[C@@H](CC(=O)O)C(=O)N[C@H](C(=O)N[C@@H](Cc1c[nH]cn1)C(=O)N[C@@H](CC(N)=O)C(=O)N[C@@H](CO)C(=O)N[C@H]1CCOC1=O)C(C)C [PTH analog 2] (H-SVSEIQLLHNSGKHRNSSRRSRWSRKKSKDVHNS-{hSer(lactone)}),4.1,3.2,not stable,

# Source: US6313092A, “Method for increasing the electrotransport flux of polypeptides” (ALZA Corporation, priority 1998, dated 2001)
